# From PubChem BioAssay AID330 (DTP/NCI, 2004)
# Several values for one entry are separate records, joined by “and”; a condition that tells them apart may be missing. Identical values can stand only once. Inconclusive results and toxic doses are left out.
# System: P388 leukemia ip, CD2F1 mice, survival T/C
# Assay: NCI In Vivo Anticancer Drug Screen. Data for tumor model P388 Leukemia (intraperitoneal) in CD2F1 (CDF1) mice
# Details: endpoint: median survival time, higher = longer survival
# Method in brief: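 Mice carrying the transplanted tumor received test compound or vehicle. Survival was recorded in each group, and the value is the treated-group measurement divided by that of the vehicle-treated control group.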
# [1] = dose: 60.0 mg/kg/injection, schedule: Q01DX005 (ip), vehicle: saline with Tween-80
# [2] = dose: 120.0 mg/kg/injection, schedule: Q01DX005 (ip), vehicle: saline with Tween-80
# [3] = dose: 240.0 mg/kg/injection, schedule: Q01DX005 (ip), vehicle: saline with Tween-80
# [4] = dose: 60.0 mg/kg/injection, schedule: Q01DX005 (ip), vehicle: saline
# [5] = dose: 120.0 mg/kg/injection, schedule: Q01DX005 (ip), vehicle: saline
# [6] = dose: 240.0 mg/kg/injection, schedule: Q01DX005 (ip), vehicle: saline
# [7] = dose: 50.0 mg/kg/injection, schedule: Q01DX005 (ip), vehicle: Klucel (hydroxypropylcellulose) (HPC)
# [8] = dose: 100.0 mg/kg/injection, schedule: Q01DX005 (ip), vehicle: Klucel (hydroxypropylcellulose) (HPC)
# [9] = dose: 200.0 mg/kg/injection, schedule: Q01DX005 (ip), vehicle: Klucel (hydroxypropylcellulose) (HPC)
structure (smiles),measurement,setting,value
COc1cccc2c1C(=O)c1c(O)c3c(c(O)c1C2=O)CC(O)(c1cscn1)CC3O (stereo unspecified),T/C,"dose: 1.56 mg/kg/injection, schedule: Q01DX009 (ip), vehicle: other",104 % of control
same,T/C,"dose: 3.13 mg/kg/injection, schedule: Q01DX009 (ip), vehicle: other",107 % of control
same,T/C,"dose: 6.25 mg/kg/injection, schedule: Q01DX009 (ip), vehicle: other",101 % of control
same,T/C,"dose: 12.5 mg/kg/injection, schedule: Q01DX009 (ip), vehicle: other",105 % of control
same,T/C,"dose: 25.0 mg/kg/injection, schedule: Q01DX009 (ip), vehicle: other",104 % of control
same,T/C,"dose: 50.0 mg/kg/injection, schedule: Q01DX009 (ip), vehicle: other",113 % of control
CC(=O)OCC1OC(N(CCCl)CCCl)C(OC(C)=O)C(OC(C)=O)C1OC(C)=O (stereo unspecified),T/C,"dose: 1.25 mg/kg/injection, schedule: Q01DX005 (ip), vehicle: distilled water + Tween-80",106 % of control
same,T/C,"dose: 2.5 mg/kg/injection, schedule: Q01DX005 (ip), vehicle: distilled water + Tween-80",110 % of control and 115 % of control
same,T/C,"dose: 5.0 mg/kg/injection, schedule: Q01DX005 (ip), vehicle: distilled water + Tween-80",110 % of control and 117 % of control and 119 % of control
same,T/C,"dose: 10.0 mg/kg/injection, schedule: Q01DX005 (ip), vehicle: distilled water + Tween-80",173 % of control
same,T/C,"dose: 20.0 mg/kg/injection, schedule: Q01DX005 (ip), vehicle: distilled water + Tween-80",187 % of control [middle of 4 runs]
same,T/C,"dose: 40.0 mg/kg/injection, schedule: Q01DX005 (ip), vehicle: distilled water + Tween-80",199 % of control
CN(C)c1ccc(-c2c3ccccc3nc3ccccc23)cc1,T/C,"dose: 12.5 mg/kg/injection, schedule: Q01DX009 (ip), vehicle: saline with Tween-80",90 % of control
same,T/C,"dose: 25.0 mg/kg/injection, schedule: Q01DX009 (ip), vehicle: saline with Tween-80",90 % of control
same,T/C,"dose: 50.0 mg/kg/injection, schedule: Q01DX009 (ip), vehicle: saline with Tween-80",100 % of control
O=C1Cn2c(cc(=O)c3ccccc32)O1,T/C,"dose: 25.0 mg/kg/injection, schedule: Q01DX001 (ip), vehicle: saline with Tween-80",109 % of control
same,T/C,"dose: 50.0 mg/kg/injection, schedule: Q01DX001 (ip), vehicle: saline with Tween-80",116 % of control
same,T/C,"dose: 100.0 mg/kg/injection, schedule: Q01DX001 (ip), vehicle: saline with Tween-80",116 % of control
O=C(O)c1cc2ccc(Cl)cc2[se]1,T/C,"dose: 12.5 mg/kg/injection, schedule: Q01DX009 (ip), vehicle: saline",89 % of control
same,T/C,"dose: 25.0 mg/kg/injection, schedule: Q01DX009 (ip), vehicle: saline",105 % of control
same,T/C,"dose: 50.0 mg/kg/injection, schedule: Q01DX009 (ip), vehicle: saline",106 % of control and 88 % of control
same,T/C,"dose: 200.0 mg/kg/injection, schedule: Q01DX009 (ip), vehicle: saline",91 % of control
CC(=O)Oc1cc2c(cc1OC(C)=O)OCC(c1ccccc1)C2 (stereo unspecified),T/C,[1],98 % of control
same,T/C,[2],98 % of control
same,T/C,[3],97 % of control
COC(=O)c1cn[nH]c1CC(N)=O,T/C,[4],100 % of control
same,T/C,[5],103 % of control
same,T/C,[6],103 % of control
O=[N+]([O-])c1ccc(OC2OCC(O)C(O)C2O)cc1 (stereo unspecified),T/C,[4],97 % of control
same,T/C,[5],88 % of control
same,T/C,[6],89 % of control
CC1C/C(=C\N=[N+]=[N-])C(=O)O1 (stereo unspecified),T/C,"dose: 15.0 mg/kg/injection, schedule: Q01DX005 (ip), vehicle: saline with Tween-80",107 % of control
same,T/C,"dose: 30.0 mg/kg/injection, schedule: Q01DX005 (ip), vehicle: saline with Tween-80",105 % of control
same,T/C,[1],105 % of control and 94 % of control
O=C1OC(Cc2ccccc2)=C(Cl)C(Cl)(Cc2ccccc2)C1Cl (stereo unspecified),T/C,"dose: 100.0 mg/kg/injection, schedule: Q01DX001 (ip), vehicle: Klucel (hydroxypropylcellulose) (HPC)",100 % of control
same,T/C,"dose: 200.0 mg/kg/injection, schedule: Q01DX001 (ip), vehicle: Klucel (hydroxypropylcellulose) (HPC)",108 % of control
O=c1cc(O)nc2nc(-c3ccccc3)c(-c3ccccc3)nn12,T/C,[7],101 % of control
same,T/C,[8],93 % of control
same,T/C,[9],93 % of control
Cc1ccc(S(=O)(=O)NC(=O)Nn2c(C)nc3ccccc3c2=O)cc1,T/C,[7],103 % of control
same,T/C,[8],102 % of control
same,T/C,[9],106 % of control
CN(C)c1ccc(C2N(C)CCN2C)cc1,T/C,[1],93 % of control
same,T/C,[2],99 % of control
same,T/C,[3],103 % of control
CN=C(NCCCOC)c1ccc(NC(=O)Nc2ccc(NC(=O)Nc3ccc(C(=NC)NCCCOC)cc3)cc2)cc1,T/C,[7],150 % of control
